Columns and labels:
[1] = tested on: HCT116 (colorectal cancer) cells; test: Cell counting with trypan blue (cell number / cytostasis and cell viability) in HCT116 cells; format: cell-based; conditions: 48 hours
[2] = tested on: A549 (lung cancer) cells; test: Cell counting with trypan blue (cell number / cytostasis and cell viability) in A549 cells; format: cell-based
Experimental: The cytostatic effect upon administration of 6-β-naltrexol (6BN) and naltrexone (NTX) to A549 (lung cancer) and HCT116 (colorectal cancer) cells was studied in vitro. Firstly, A549 and HCT116 cells were seeded into 6-well plates at a density of 2×10^5/well and left to adhere overnight. Cells were then cultured with 0.001 μM, 0.01 μM, 0.1 μM or 1 μM of 6BN or NTX for 48 hours. Experiments were performed alongside a control where cells were not administered with 6-β-naltrexol or naltrexone (FIG. 1).
The viability of cells was then measured by cell counting using trypan blue as a way of discriminating live and dead cells. Cytostasis was indicated by a reduction in cell number and no associated reduction in cell viability.
Next, the effect of co-administration of low dose (10 nM) or high dose (10 μM) 6-β-naltrexol or naltrexone (NTX) alongside calcitriol was investigated. The cytostatic and cytotoxic effect was investigated in both A549 and HCT116 cells. A549 and HCT116 cells were seeded into 6-well plates at a density of 2×10^5/well and left to adhere overnight. The following day low or high dose 6BN or NTX was added to cells in isolation or in combination with calcitriol and incubated for 48 hours. A549 cells were co-administered with 10 nM calcitriol, whereas HCCT116 cells were co-administered 10 nM calcitriol.
Cell viability and cytostasis were then determined as described in example 1.

O=C1CC[C@@]2(O)[C@H]3Cc4ccc(O)c5c4[C@@]2(CCN3CC2CC2)[C@H]1O5 [NTX, naltrexone, reference compound]
cell viability upon combination with calcitriol ([1]; HCT116 cells, 10 nM NTX with 100 nM calcitriol): reduces the viability

Oc1ccc2c3c1OC1[C@H](O)CC[C@@]4(O)[C@@H](C2)N(CC2CC2)CC[C@]314 (stereo partly drawn) [6-β-naltrexol, 17-(Cyclopropylmethyl)-4,5-epoxymorphinan-3,6beta,14-triol]
cytostasis (cell number) upon co-administration with calcitriol ([2]; A549 cells, 10 nM 6BN co-administered with calcitriol, 48 hours): significant reduction in cytostasis
cytostasis (cell number) upon co-administration with calcitriol ([2]; A549 cells, 10 μM 6BN co-administered with calcitriol, 48 hours): not observed
cell viability ([2]; A549 cells, 0.001-1 μM, 48 hours, trypan blue): No reduction in cell viability
cytostasis (cell number) ([2]; A549 lung cancer cells, 0.001-1 μM, 48 hours, single agent): selective reduction in cytotostasis in lung cancer cells
cytostasis (cell number) upon co-administration with calcitriol ([1]; HCT116 cells, 10 nM 6BN co-administered with calcitriol): not observed
cell viability ([1]; HCT116 cells, 0.001-1 μM, trypan blue): No reduction in cell viability
cytostasis (cell number) ([1]; HCT116 colorectal cancer cells, 0.001-1 μM, single agent, effect at higher concentrations): less pronounced decrease in cytotostasis

C=C1/C(=C\C=C2/CCC[C@]3(C)[C@@H]([C@H](C)CCCC(C)(C)O)CC[C@@H]23)C[C@@H](O)C[C@@H]1O [Calcitriol, calcitriol, reference compound]
cytostatic effect of calcitriol in isolation ([2]; lung cancer cells, calcitriol administered in isolation): no independent cytostatic effect

Reference: patent US11304943B2, “Combination for use in the treatment of lung cancer” (LDN Pharma Limited, priority 2017, dated 2022)
